From paper PMC11822212, “High-throughput screening identifies Aurora kinase B as a critical therapeutic target for Merkel cell carcinoma” (Nature Communications, 2025) come the findings set out here.

One test relates to NIH-3T3 cells. The test can be described thus: qHTS cell viability (CellTiter-Glo, 72 h; primary screen), control cell line. The format is cell-based, mouse. The note with it: NPC library. In general terms: qHTS replaces the single test concentration by a dilution series.
In the next test the test system is UISO cells (VN-MCC). Briefly: qHTS cell viability (CellTiter-Glo, 72 h; primary and follow-up small molecule screen). The format is cell-based, human. The note with it: NPC library.
A further test relates to WAGA cells (VP-MCC). The description is as above. The format is cell-based, human. To be noted: NPC library.
Another test deals with MKL-1 cells (VP-MCC). Described as above. The format is cell-based, human. To be noted: NPC library.
For test [1], the system named is control cell lines (HACAT, HEK293T, CRL-7250, NIH-3T3). The test can be described thus: qHTS cell viability, control cell lines as a group (mean AUC, Control.avg). The format is cell-based. The note with it: NPC library; mean AUC of control cell lines.
Test [2] deals with VP-MCC cell lines (WAGA, MKL-1, MKL-2). Briefly: qHTS cell viability, VP-MCC cell lines as a group (mean AUC, VP.MCC.avg). To be noted: NPC library; for VP-MCC_Avg_AUC: mean AUC of VP-MCC cell lines. The format is cell-based, human.
The next test deals with MCC13 cells (VN-MCC). The test can be described thus: qHTS cell viability (CellTiter-Glo, 72 h; primary and follow-up small molecule screen). The format is cell-based, human. The note with it: NPC library.
A further test relates to MKL-2 cells (VP-MCC). Described as above. The format is cell-based, human. To be noted: NPC library.
Test [3] deals with MCC cell lines (WAGA, MKL-1, MKL-2, MCC13, MCC26, UISO). Briefly: qHTS cell viability, all six MCC cell lines as a group (mean AUC, MCC.avg). The format is cell-based, human. The note with it: NPC library; mean AUC of six MCC cell lines.
In test [4] the test system is VN-MCC cell lines (MCC13, MCC26, UISO). Briefly: qHTS cell viability, VN-MCC cell lines as a group (mean AUC, VN.MCC.avg). The format is cell-based, human. The note with it: NPC library; for VN-MCC_Avg_AUC: mean AUC of VN-MCC cell lines.
The next test has as its system HEK293T cells. Briefly: qHTS cell viability (CellTiter-Glo, 72 h; primary screen), control cell line. The format is cell-based, human. The note with it: NPC library.
Test [5] deals with six MCC cell lines and four control cell lines. Briefly: qHTS cell viability, all 10 cell lines screened. The format is cell-based. The note with it: NPC library.
The next test has as its system CRL-7250 cells. Briefly: qHTS cell viability (CellTiter-Glo, 72 h; primary screen), control cell line. The format is cell-based. The note with it: NPC library.
The next test has as its system MCC26 cells (VN-MCC). The test can be described thus: qHTS cell viability (CellTiter-Glo, 72 h; primary and follow-up small molecule screen). The format is cell-based, human. The note with it: NPC library.
In the next test the test system is HACAT cells. The test can be described thus: qHTS cell viability (CellTiter-Glo, 72 h; primary screen), control cell line. The format is cell-based, human. The note with it: NPC library.
[6] abbreviates: 8-point DRC, area under dose-response curve.
Setting [7] is: qHTS dose-response AUC, NIH3T3 control.
The mark [8] stands for this setting: therapeutic window: Control avg AUC minus VP-MCC avg AUC.
The mark [9] stands for this setting: therapeutic window: Control avg AUC minus VN-MCC avg AUC.
Where [10] appears, read: qHTS dose-response AUC, HEK293T control.
The mark [11] stands for this setting: therapeutic window: Control avg AUC minus MCC avg AUC.
Setting [12] is: qHTS dose-response AUC, CRL7250 control.
The mark [13] stands for this setting: qHTS dose-response AUC, HACAT control.

In turn, `Oc1ccc(C2CNCCc3c2cc(O)c(O)c3Cl)cc1` (stereo not drawn) [Fenoldopam] yielded an NIH3T3_AUC in the test with NIH-3T3 cells (8-point DRC, control cell line) of 489.56. Also, the UISO_AUC in the test on UISO cells (VN-MCC) (setting [6]) is given as 438.854. Moreover, in the test on WAGA cells (VP-MCC) (setting [6]), the WAGA_AUC amounted to 438.933. The molecule also gave an MKL1_AUC with MKL-1 cells (VP-MCC) (setting [6]) of 451.807. In [1], this molecule registered a Control_Avg_AUC of 491.543. This molecule also returned a Control-VP-MCC in test [2] (Control AUC minus VP-MCC AUC (therapeutic window)) of 43.713. This molecule also registered a VP-MCC_Avg_AUC in [2] of 447.83. Besides, the MCC13_AUC in the test on MCC13 cells (VN-MCC) (setting [6]) was determined as 446.053. In the test with MKL-2 cells (VP-MCC) (setting [6]), this molecule displayed an MKL2_AUC of 452.751. The molecule also registered an MCC_Avg_AUC in [3] of 444.271. In addition, the Control-VN-MCC in [4] (Control AUC minus VN-MCC AUC (therapeutic window)) was determined as 50.8323. The molecule also yielded a VN-MCC_Avg_AUC in test [4] of 440.711. In addition, the HEK293T_AUC with HEK293T cells (8-point DRC, control cell line) came out at 492.113. Further, in test [5] (Control AUC minus MCC AUC (therapeutic window)), the Control-MCC is listed as 47.2727. This molecule also returned a CRL7250_AUC in the test with CRL-7250 cells (8-point DRC, control cell line) of 492.55. This molecule also returned an MCC26_AUC in the test on MCC26 cells (VN-MCC) (setting [6]) of 437.226. Moreover, the HACAT_AUC in the test with HACAT cells (8-point DRC, control cell line) is 491.95.

`OCCN1CCN(CCCN2c3ccccc3Sc3ccc(C(F)(F)F)cc32)CC1` [Fluphenazine] returned an NIH3T3_AUC with NIH-3T3 cells (setting [7]) of 476.772. The molecule further gave a UISO_AUC in the test on UISO cells (VN-MCC) (qHTS dose-response AUC, UISO) of 423.342. In the test with WAGA cells (VP-MCC) (qHTS dose-response AUC, WAGA), this molecule displayed a WAGA_AUC of 435.377. Moreover, the MKL1_AUC with MKL-1 cells (VP-MCC) (qHTS dose-response AUC, MKL1) worked out at 435.034. Besides, the Control_Avg_AUC in test [1] is on record as 473.361. The molecule also returned a VP-MCC_Avg_AUC in test [2] of 423.354. This molecule returned a Control-VP-MCC in test [2] (setting [8]) of 50.0066. For the same molecule, in the test with MCC13 cells (VN-MCC) (qHTS dose-response AUC, MCC13), the MCC13_AUC is on record as 444.309. Also, the MKL2_AUC with MKL-2 cells (VP-MCC) (qHTS dose-response AUC, MKL2) amounted to 399.652. Besides, the MCC_Avg_AUC in test [3] is 427.186. In [4], the VN-MCC_Avg_AUC amounted to 431.018. The molecule further showed a Control-VN-MCC in [4] (setting [9]) of 42.343. The molecule also had an HEK293T_AUC with HEK293T cells (setting [10]) of 438.571. Also, in [5] (setting [11]), the Control-MCC turned out to be 46.1748. For the same molecule, the CRL7250_AUC in the test with CRL-7250 cells (setting [12]) was found to be 486.675. In the test on MCC26 cells (VN-MCC) (qHTS dose-response AUC, MCC26), this molecule gave an MCC26_AUC of 425.402. The same molecule registered an HACAT_AUC with HACAT cells (setting [13]) of 491.426.

For the molecule `Cl.Cl.Fc1ccc(C(OCCN2CCN(CCCc3ccccc3)CC2)c2ccc(F)cc2)cc1` [GBR 12909 dihydrochloride], the NIH3T3_AUC with NIH-3T3 cells (setting [7]) is listed as 436.091. In the test on UISO cells (VN-MCC) (qHTS dose-response AUC, UISO), this molecule came in with a UISO_AUC of 384.769. Moreover, in the test on WAGA cells (VP-MCC) (qHTS dose-response AUC, WAGA), the WAGA_AUC is given as 399.59. The same molecule came in with an MKL1_AUC in the test on MKL-1 cells (VP-MCC) (qHTS dose-response AUC, MKL1) of 403.123. Also, the Control_Avg_AUC in test [1] was found to be 444.409. In [2], this molecule came in with a VP-MCC_Avg_AUC of 392.686. The molecule also gave a Control-VP-MCC in [2] (setting [8]) of 51.7231. The molecule also yielded an MCC13_AUC with MCC13 cells (VN-MCC) (qHTS dose-response AUC, MCC13) of 436.239. Besides, the MKL2_AUC in the test with MKL-2 cells (VP-MCC) (qHTS dose-response AUC, MKL2) was found to be 375.344. The molecule also yielded an MCC_Avg_AUC in test [3] of 400.618. In test [4], this molecule displayed a VN-MCC_Avg_AUC of 408.55. Besides, the Control-VN-MCC in test [4] (setting [9]) was found to be 35.8586. Also, in the test with HEK293T cells (setting [10]), the HEK293T_AUC is reported as 425.616. In test [5] (setting [11]), this molecule gave a Control-MCC of 43.7909. The molecule also displayed a CRL7250_AUC in the test with CRL-7250 cells (setting [12]) of 454.771. The same molecule came in with an MCC26_AUC in the test with MCC26 cells (VN-MCC) (qHTS dose-response AUC, MCC26) of 404.643. In the test on HACAT cells (setting [13]), the HACAT_AUC is 461.158.
